What all share (type): cell-based, human
Assay [1] concerns prostate carcinoma cell lines (DU-145, PC-3, LNCaP). Nature of the assay: MTT viability assay. The conditions noted are these: 48 h. How it is done:
(§1) Cells were seeded in 96-well plates, pretreated with NAC (5 mM) or Tiron (1 mM) for 2 h and infected with Ad.mda-7. Forty eight hours later, viability was assessed by MTT assay. […] Cells were seeded in 96-well plates, infected with Ad.mda-7 and treated with As2O3 (10 μM) or NSC656240 (400 nM). Forty eight h later, viability was assessed by MTT assay. Panel C. […] After treatment, cells were stained using DCF-DA and analyzed using flow cytometry. […] After treatment, cells were washed and stained with Annexin V-FITC conjugate. Late apoptotic and necrotic cells were excluded using PI staining. Results are the mean of three independent experiments performed with triplicate samples±S.E.
[…] Cellular viability was assessed by MTT assay 48 h after infection (Panel A). Mitochondrial membrane potential (DiOC6(3) staining, Panel B) and apoptotic changes (Annexin V staining, Panel C) were assessed 18 h (LNCaP cells) and 24 h (DU-145, PC-3 and P69 cells) after infection.
MTT Viability Assays. This method was performed as described (Lebedeva et al., 2000, Cancer Research 60:6052-6060). […] At the indicated time points, medium was removed, and fresh medium containing 0.5 mg/ml MTT was added to each well. The cells were incubated at 37° C. for 4 h and then an equal volume of solubilization solution (0.01N HCl in 10% SDS) was added to each well and mixed thoroughly. The optical density from the plates was read on a BioRad Microplate Reader Model 550 at 595 nm.
(In general: Tetrazolium dyes change colour on reduction, which living cells bring about.)

Assay [2] relates to pancreatic cancer cell lines. As to the kind of experiment: Western blotting of K-ras and MDA-7 protein. An excerpt:
FIG. 43. MDA-7 expression in pancreatic cancer cell lines in the presence or absence of Ad.mda-7, Ad.K-rasAS, or NSC656243. The presence of MDA-7 in mutant K-ras cell lines requires expression of both mda-7 and the antisense K-ras construct, and is potentiated by NSC656243.
FIG. 45. The MDA-7 expression observed in the PANC-1 or BxPC-3 cell lines following administration of Ad.mda-7 in combination with either NSC656240 or Ar2O3 is abrogated by NAC administration.
Preparation of Cell Extracts and Western Blotting Analysis. Cells were washed 2× with cold PBS and lysed on ice for 30 min in […] of cold RIPA buffer [50 mM Tris-HCl (pH 8.0), 150 mM NaCl, 0.1% SDS, 1% NP40, and 0.5% sodium deoxycholate] with freshly added 0.1 mg/ml phenylmethylsulfonyl fluoride, 1 mM sodium orthovanadate, and 1 mg/ml aprotinin. After cell debris were removed by centrifugation at 14,000 g for 10 min at 4° C., protein concentrations were determined using the Bio-Rad protein assay system (Bio-Rad Laboratories, Richmond, Calif.). Aliquots of cell extracts containing […] of total protein were resolved in 12% SDS-PAGE and transferred to Immobilon-P PVDF membranes (Millipore Corp., Bedford, Mass.). Filters were blocked for 1 h at room temperature in Blotto A [5% nonfat milk powder in TBS-T: 10 mM Tris-HCl (pH 8.0), 150 mM NaCl, 0.05% Tween 20], and then incubated for 1 h at room temperature in Blotto A containing a 1:1000 dilution of rabbit anti MDA-7 polyclonal antibody. After washing in TBS-T buffer (3×5 min, RT), filters were incubated for 1 h at room temperature in Blotto A containing a 1:10,000 dilution of peroxidase conjugated anti-rabbit secondary antibody (Amersham, Arlington Heights, Ill.). After washing in TBS-T, ECL was performed according to the manufacturer's recommendation.
In general terms: In western blotting, separated proteins are transferred to a membrane and probed.

Assay [3] has as its system pancreatic carcinoma cells. Nature of the assay: MTT viability assay. How it is done:
MTT Viability Assays. Cell viability was assessed by MTT assays as described (Lebedeva et al., 2000, Cancer Research 60:6052-6060). Briefly, cells were seeded in 96-well tissue culture plates (1.5×10^3 cells per well) and treated with various agents. At the indicated times, medium was removed, and fresh medium containing 0.5 mg/ml MTT was added to each well. The cells were incubated at 37° C. for 4 h and then an equal volume of solubilization solution (0.01N HCl in 10% SDS) was added to each well and mixed thoroughly. The optical density from the plates was read on a BioRad Microplate Reader Model 550 at 595 nm.

Assay [4] deals with pancreatic carcinoma cells. As to the kind of experiment: Apoptosis (annexin V exposure, hypodiploid A0 cells). An excerpt:
FIG. 39. Combined treatment of pancreatic carcinoma cells by NSC656240 and Ad.mda-7 increases levels of annexin V in pancreatic cancer cells irrespective of K-ras status.
FIG. 40. NAC administration prevents the apoptosis of pancreatic cancer cells induced by treatment of pancreatic carcinoma cells by NSC656240 or Ar2O3 and Ad.mda-7.
FIG. 41. Combined treatment of pancreatic carcinoma cells by NSC656240 or Ar2O3 and Ad.mda-7 causes apoptosis irrespective of K-ras status.
Annexin V Binding Assays. Cells were trypsinized, washed once with complete medium and stained with FITC-labeled Annexin-V (kit from Oncogene Research Products, Boston, Mass.) according to the manufacturer's instructions. Flow cytometry was performed immediately after staining.
Cell Cycle Analysis. Cells were trypsinized, washed 2× with PBS and fixed in 70% ethanol overnight at −20° C. Then cells were washed 2 times with PBS, and aliquots of 1×10^6 cells were resuspended in 1 ml of PBS containing 1 mg/ml of RNase A and 0.5 mg/ml of propidium iodide. After 30 min incubation, cells were analyzed by flow cytometry using a FACScan flow cytometer (Becton Dickinson, San Jose, Calif.).

The subject of assay [5] is pancreatic cancer cells stably transformed to express MDA-7. Nature of the assay: Apoptosis and cell death in cells stably expressing MDA-7. An excerpt:
FIG. 49. Induction of apoptosis in pancreatic cancer cell lines (PANC-1) stably expressing MDA-7.
FIG. 50. Induction of apoptosis in pancreatic cancer cell lines (Mia PaCa-2) stably expressing MDA-7.
FIG. 51. Induction of apoptosis in pancreatic cancer cell lines (FM516 or BxPC-3) stably expressing MDA-7.

In another assay the test system is prostate carcinoma cells. As to the kind of experiment: ROS production (DCF fluorescence, flow cytometry). How it is done:
as §1
On the technique in general: In flow cytometry, cells or beads pass a laser one at a time.

Assay [6] concerns pancreatic carcinoma cells. Nature of the assay: ROS production (flow cytometry). The protocol:
FIG. 46. Combined treatment by NSC656240 or Ar2O3 and Ad.mda-7 causes overproduction of ROS in pancreatic carcinoma cells.
Assessment of ROS Production. To determine ROS production, cells were stained with 2.5 μM HE or 5 μM DCFH-DA in PBS for 30 min at 37° C. in the dark. Immediately after staining, cells were analyzed by flow cytometry (FACSscan, Becton-Dickinson, Mountain View, Calif.), and data were analyzed using CellQuest software, version 3.1 (Becton Dickinson). For inhibition experiments, NAC (Sigma) was added 2 h prior to infection with Ad.mda-7. In all cases, cells were gated to exclude cell debris.

Experimental findings from US20060110376A1, “MDA-7 and free radicals in the treatment of cancer” (priority 2002, published 2006) are described below.

Turning to `CC(=O)N[C@@H](CS)C(=O)O` [NAC, N-acetyl-cysteine], in assay [1] (NAC 5 mM, Tiron 1 mM), the “effect of antioxidant on cell death promoting activity of Ad.mda-7” value was “abrogated”. In addition, the “effect of NAC on MDA-7 expression and secretion” value in assay [2] (both type of cells) is “abrogates MDA-7 expression and secretion”. Moreover, in assay [3], the “effect of N-acetyl-cysteine on death after combinational treatment” value is recorded as “death can be prevented”. Also, the “effect of NAC on apoptosis after combination treatment” value in assay [4] is given as “prevents apoptosis”. For the same molecule, the “effect of NAC on apoptosis and cell death” value in assay [5] is “blocks these processes”. Also, the “effect of NAC on Ad.mda-7-induced ROS generation” value with prostate carcinoma cells (non-cytotoxic dose of NAC) was “suppressed Ad.mda-7-induced ROS generation”. In addition, in assay [6], the “effect of NAC on ROS production” value was “blocked ROS production”.

As to arsenic trioxide, the “effect of ROS-producing agent on cell death of Ad.mda-7-infected cells” value in assay [1] (As2O3 10 μM, NSC656240 400 nM) is “potentiated cell death”. For the same molecule, the “MDA-7 protein expression and secretion, combined treatment with Ad.mda-7” value in assay [2] (wt and mutated K-ras pancreatic cancer cell lines) is “leads to MDA-7 protein expression and secretion”. For the same molecule, the “cell death, combinational treatment with Ad.mda-7” value in assay [3] (Ad.mda-7 100 p.f.u./cell) is listed as “caused death of these cells irrespective of their K-ras status”. Besides, the “apoptosis, combination treatment with Ad.mda-7” value in assay [4] (annexin V exposure and A0 population) was “caused apoptosis in pancreatic carcinoma cells independently of their K-ras status”. Besides, in assay [5], the “apoptosis and cell death” value is “caused apoptosis and cell death”. Besides, in the assay on prostate carcinoma cells (treated with NSC656240 or As2O3), the ROS levels result was “ROS levels increased proportionally”. Moreover, the “ROS production, combined treatment with Ad.mda-7” value in assay [6] is recorded as “Caused ROS overproduction”.
